Laboratory results: patent US12570984B2, “DNA aptamer specifically binding to glutathione and use thereof” (Nexmos Co., LTD, priority 2020, dated 2026)

Assays:
[1] = target: T1, tyrosinase (Homo sapiens, UniProt P14679); test: Whitening efficacy test, in vitro cell-based tyrosinase activity (MNT-1 cells); conditions: 72 hours, final 100 μM GSH, 1 μM Apt G, 0.01% arbutin, L-DOPA, absorbance 475 nm
T1 sequence (P14679 19-529): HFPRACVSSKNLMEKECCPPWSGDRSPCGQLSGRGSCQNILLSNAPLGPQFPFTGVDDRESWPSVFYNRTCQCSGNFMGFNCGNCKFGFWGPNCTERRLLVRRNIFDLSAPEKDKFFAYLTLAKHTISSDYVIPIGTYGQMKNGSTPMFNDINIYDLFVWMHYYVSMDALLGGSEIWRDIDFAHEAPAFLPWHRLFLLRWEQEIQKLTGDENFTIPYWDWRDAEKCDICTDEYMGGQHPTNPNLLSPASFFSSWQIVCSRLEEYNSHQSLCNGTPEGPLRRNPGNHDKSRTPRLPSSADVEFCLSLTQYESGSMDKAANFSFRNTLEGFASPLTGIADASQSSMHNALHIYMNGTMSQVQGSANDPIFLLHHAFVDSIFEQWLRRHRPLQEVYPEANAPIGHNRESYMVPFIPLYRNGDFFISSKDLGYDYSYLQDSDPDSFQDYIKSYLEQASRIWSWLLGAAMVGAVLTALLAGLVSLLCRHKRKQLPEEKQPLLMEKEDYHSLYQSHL
Experimental: The final concentration of each component in this experiment was 100 μM GSH, 1 μM Apt G, 0.01% arbutin,
100 μM GSH and 1 μM of the prepared aptamer (molar concentration of 100:1) were added to the media and reacted at room temperature for 30 minutes.
MNT-1 cells were seeded on a 6-well plate and incubated for 24 hours at 37° C., 5% CO2 incubator.
After treating each of the prepared samples, the samples were again incubated at 37° C. and 5% CO2 incubator for 72 hours.
After incubation, ice-cold lysis buffer (RIPA buf.+ protease inhibitor) was used to remove the cells from the plate, and the removed cells were transferred to an EP-tube and centrifuged to remove only the supernatant.
Lysate, L-DOPA, potassium phosphate buffer (pH6.5) was added to a 96 well plate and mixed (each test group used the same amount of protein through protein quantification).
After incubation for 1 hour at 37° C., 5% CO2 incubator, absorbance was measured at 475 nm using a plate reader.

[2] = tested on: tyrosinase; conditions: final 20 μM GSH; 37° C. 10 minutes; absorbance 490 nm; N=5
Experimental: The final concentrations of each component in this experiment were 20 μM GSH, 0.2 μM Apt G, and 0.01% arbutin.
300 μM GSH and 3 μM of the prepared aptamer (molar concentration of 100:1) were dissolved in tertiary distilled water and reacted at room temperature for 30 minutes.
In a 96 well plate, 200 μL of 0.1 M potassium phosphate buffer (pH6.5), 20 μL of sample, 20 μL of 2 KU/mL tyrosinase, and 60 μL of 1.0 mM tyrosine were sequentially added and reacted at 37° C. for 10 minutes.
After the reaction, absorbance was measured at 490 nm using a plate reader.

[3] = Antioxidant efficacy test, DTNB assay (sulfhydryl group determination) of GSH stored at 37° C.; conditions: day 16, storage at 37° C.; final 125 μM GSH, 1.25 μM aptamin G; n=5
Experimental: In this experiment, the final concentration of each component was 125 μM GSH and 1.25 μM aptamin G.
The prepared aptamer (100:1) of the prepared aptamer (100:1) of 250 μM GSH and 2.5 μM was dissolved in the 3th distilled water for 30 minutes at room temperature.
The above GSH-Aptamin G complex was stored for a certain period of time under severe conditions (37° C.), and samples were obtained every 4 days and measured for 16 days.
Just before the sample measurement, 10 mm DTNB (4 mg/ml, buffer: 0.1 M potassium Phosphate buffer, pH 8.0) was prepared to mix the sample (50 μL) of DTNB solution and shaking incubation.
After the reaction, the UV Absorbance value was measured at 412 nm and REF wavelength 605 nm using the Plate Reader.

| inhibition of the activity of tyrosinase [2] | amount of GSH remaining unoxidized [3] | Compound | inhibition of tyrosinase activity (cell test) [1] |
| --- | --- | --- | --- |
|  |  | OC[C@H]1O[C@@H](Oc2ccc(O)cc2)[C@H](O)[C@@H](O)[C@@H]1O [Arbutin] | about 25% |
| about 75% | about 60% | N[C@@H](CCC(=O)N[C@@H](CS)C(=O)NCC(=O)O)C(=O)O [GSH, Glutathione] | tendency not to inhibit the activity of tyrosinase |
